Where two headings read alike, the source gives them in different places. Marks after values point to notes of the source that are not given here.
Legend:
other LuxR homologues = test system: other LuxR homologues; parameters: method as in Kim et al.; settings: ref Kim et al.; cited from earlier work
RhlR [1] = target: T1, RhlR (Pseudomonas aeruginosa, UniProt P54292); assay: E. coli (JLD271) RhlR reporter antagonism assay, in competition with BHL; assay type: cell-based; settings: for max. RhlR inhibition (%): E. coli RhlR reporter, BHL at 10 μM set to 0%, media control set to 100%; for IC50: IC50, E. coli JLD271 RhlR reporter, against 10 μM BHL; for activity profile in RhlR: E. coli RhlR reporter dose-response curves
T1 construct: expressed in transfected cells; host or cells: E. coli JLD271 (K-12 ΔlacX74 sdiA271::Cam) carrying pJN105-R2 (RhlR expression) and pSC11-rhlI (rhlI'-lacZ reporter)
T1 sequence (P54292 whole entry): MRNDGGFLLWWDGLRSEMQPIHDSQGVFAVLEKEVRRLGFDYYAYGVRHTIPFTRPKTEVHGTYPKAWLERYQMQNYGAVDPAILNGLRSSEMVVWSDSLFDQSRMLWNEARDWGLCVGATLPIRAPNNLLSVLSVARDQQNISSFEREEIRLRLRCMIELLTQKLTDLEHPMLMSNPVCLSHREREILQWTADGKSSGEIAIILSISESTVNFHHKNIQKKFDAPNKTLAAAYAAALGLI
Procedure: (§1) To start, the sulfonyl HLs were evaluated for their ability to antagonize RhlR using a previously described E. coli strain (JLD271) harboring a RhlR expression plasmid and a rhlI reporter plasmid. This E. coli reporter produces RhlR, and protein activity in the presence of an added small molecule can be measured via the production of β-galactosidase as quantified via luminescence (see Methods). Compounds were screened in competition against RhlR’s native ligand, BHL (at its EC50 value in this strain, 10 μM), over a range of concentrations to generate antagonism dose–response curves (see Supporting Information) and calculate IC50 values (listed in Table ). A small set of compounds was also screened for RhlR agonism in the E. coli reporter; the agonism assay format was identical to the antagonism assay, except no BHL was added.
(§2) RhlR activity in E. coli strain JLD271 (ΔsdiA) was measured via a β-galactosidase reporter (rhI-lacZ) using the Promega Beta-Glo Assay System as previously described. RhlR activity in P. aeruginosa PA14 (ΔrhlIΔlasI) was measured via a GFP reporter (rhlA-gfp). […] See Supporting Information for both reporter protocols.
(§3) Supporting Information — Aguirre-Figueroa et al.
(§4) E. coli and P. aeruginosa RhlR reporter assay protocols.
(§5) E. coli RhlR reporter assay. RhlR activity in E. coli strain JLD271 (ΔsdiA) was measured via a β-galactosidase reporter using the Promega Beta-Glo® Assay System as previously described.10 A schematic of the reporter plasmids and assay protocol is shown in Scheme S1. Briefly, a single colony of E. coli JLD271 harboring the RhlR expression plasmid pJN105-R and the rhlI-lacZ transcriptional fusion reporter pSC11-R (Table S1) was grown in LB medium with 100 μg/mL ampicillin and 10 μg/mL gentamicin overnight (~16 h). The culture was diluted 1:10 in fresh LB medium and grown to an OD600 = 0.25 (0.23–0.28) (~0.5 h). Arabinose was added to a final concentration of 4 mg/mL to induce the expression of pJN105-R. Aliquots (2 μL) of compound DMSO stock solution or serial dilution were added to the inner wells (i.e., non-periphery rows) of a 96-well microtiter plate. To six inner wells, DMSO alone (vehicle) was added as a negative control. For agonism assays, BHL was added to six inner wells as a positive control (to achieve 1 mM). For antagonism assays, BHL was added to six inner wells as a positive control and to all of the other sample wells except for the vehicle control wells (to achieve 10 μM ). Subculture (198 μL) was then dispensed into each inner well. To the outer (periphery) wells, 200 μL of water were added to maintain humidity during incubation. Plates were then incubated for 4 h (shaking) at 37 °C.
Scheme S1. Schematic of E. coli reporter plasmids and assay. (A) Representation of plasmids used in the heterologous reporter system. (B) General reporter assay workflow. BioRender used in […]
After the incubation period, the OD600 of each well was measured using a plate reader. Cell dilution plates were prepared by transferring 10 μL from the incubated culture plate wells to a fresh 96-well plate and adding 90 μL of 18 MΩ water to each well. Next, 10 μL aliquots of diluted Beta-Glo® reagent (1:2 with 18 MΩ water) were added to each well of a white 384-well microtiter plate, followed by 10 μL of culture from each well of the dilution plate. The 384-well plate was incubated (without shaking; i.e., static) for 30 min at 30 °C. After incubation, luminescence of each well was measured using a plate reader. To determine levels of RhlR activity, raw luminescence was divided by OD600 to correct for growth variation and then normalized to the negative (0%) and positive (100%) control wells.
Dose-response reporter assay data for compounds in the E. coli RhlR reporter.
Dose-response curves for RhlR antagonism by compounds against 10 μM BHL using the E. coli JLD271 RhlR reporter are provided below. Compound names are indicated on the x-axis of each plot.
All assays performed in triplicate as at least three separate biological replicates. […]

bacterial growth = assay: Effect on bacterial growth (OD600 over time); assay type: cell-based; settings: at >2 mM concentrations
Procedure: All new compounds were fully characterized for purity and identity (see Supporting Information). […] The remaining compounds had no effect on growth over the concentration range tested. All compounds were tested in bacteriological assays in triplicate and in at least three separate trials using unique cultures. IC50 and EC50 values in reporter assays were calculated using GraphPad Prism software (version 9.0) with a variable slope sigmoidal curve fit.

RhlR [2] = target: T1, RhlR; assay: E. coli (JLD271) RhlR reporter agonism assay (no BHL added); assay type: cell-based; settings: for Emax: read-out: Max Activation (RhlR), E. coli JLD271 RhlR reporter, no BHL added, high concentrations
Procedure: as §1, §2, §3, §4
as §5, with “Subculture (198 μL) was then dispensed into each inner well. To the outer (periphery) wells, 200 μL of water were added to maintain humidity during incubation. Plates were then incubated for 4 h (shaking) at 37 °C.” left out
After the incubation period, the OD600 of each well was measured using a plate reader. […] After incubation, luminescence of each well was measured using a plate reader. To determine levels of RhlR activity, raw luminescence was divided by OD600 to correct for growth variation and then normalized to the negative (0%) and positive (100%) control wells. […]

RhlR [3] = target: T1, RhlR; settings: P. aeruginosa RhlR reporter systems; reference number not given; cited from earlier work
RhlR [4] = target: T1, RhlR; assay: P. aeruginosa RhlR reporter agonism assay; assay type: cell-based
Procedure: as §2, §3
P. aeruginosa RhlR reporter assay. RhlR activity in P. aeruginosa PA14 ΔrhlIΔlasI was measured via a GFP reporter. Briefly, a single colony of P. aeruginosa strain PA14 ΔrhlIΔlasI harboring the transcriptional fusion reporter pPROBE-GT rhlA-GFP (Table S1) was grown in LB medium with 40 μg/mL gentamicin overnight (~20 h). The culture was diluted 1:100 in fresh LB medium, without antibiotic, to an OD600 = 0.25 (0.22–0.30) (~1 h). Aliquots (2 μL) of compound DMSO stock solution or serial dilution were added to the inner wells (i.e., non-periphery rows) of a black, clear bottom 96-well plate. To 12 inner wells, DMSO alone (vehicle) was added to serve as controls (negative and positive). For the six negative control wells (no BHL), 198 μL of bacterial culture plus OdDHL (to achieve 10 μM) were added. […] After incubation, the OD600 and GFP production (excitation at 500 nm, emission at 540 nm) were read for each well using a plate reader. […]

Row | Compound | max. RhlR inhibition (%) (RhlR [1]) | IC50 (RhlR [1]) [µM] | other results
1 | O=C1OCC[C@@H]1NS(=O)(=O)c1ccccc1 [Compound 57] | 93% | 715 | antagonism of other LuxR homologues (other LuxR homologues): ~50%
2 | O=C1OCC[C@@H]1NS(=O)(=O)c1ccc(Cl)cc1 [Compound 26] | 96% | 452 | effect on bacterial growth (bacterial growth): modest effect on bacterial growth
3 | O=C1OCC[C@@H]1NS(=O)(=O)c1ccc(Br)cc1 [Compound 35, 4-bromo BSHL] | 99% | 166 | effect on bacterial growth (bacterial growth): modest effect on bacterial growth
4 | O=C1OCC[C@@H]1NS(=O)(=O)Cc1ccc(C(F)(F)F)cc1 [Compound 15, 4-CF3 BnSHL] | 35 ^f % |  | Emax (RhlR [2]): 38%; activity profile in RhlR (RhlR [1]): partial agonist
5 | O=C1OCC[C@@H]1NS(=O)(=O)c1ccc(F)c(Cl)c1 [Compound 64, 3-Cl, 4-F BSHL] | 90% | 31.3 | fold higher potency relative to 3,4-di-Cl BSHL (43) (RhlR [1]; E. coli RhlR reporter IC50): 2 fold; effect on bacterial growth (bacterial growth): modest effect on bacterial growth
6 | O=C1OCC[C@@H]1NS(=O)(=O)Cc1cccc(Cl)c1 [Compound 33, 3-Cl BnSHL] | 99% | 125 | potency gain (RhlR [1]; 33 vs 16, 43 vs 24, 86 vs 45, E. coli RhlR reporter IC50): ≤ 40 fold; effect on bacterial growth (bacterial growth): modest effect on bacterial growth
7 | O=C1OCC[C@@H]1NS(=O)(=O)c1cc(Cl)cc(Cl)c1 [Compound 50, 3,5-Cl-BSHL] |  |  | Emax (RhlR [2]): 30%; activity profile in RhlR (RhlR [1]): partial agonist behavior
8 | O=C1OCC[C@H]1NS(=O)(=O)c1ccc(Cl)c(Cl)c1 [Compound 55, 3,4-di-Cl BSHL] | 99% | 195 | 
9 | O=C1OCC[C@@H]1NS(=O)(=O)c1cccc(Cl)c1 [Compound 28, 3-chloro-BSHL] | 97% | 143 | fold more potent than 26 and 27 (RhlR [1]; E. coli RhlR reporter IC50): 3 fold
10 | O=C1OCC[C@@H]1NS(=O)(=O)Cc1ccc(Br)cc1 [Compound 19, 4-Br BnSHL] | 77% | 348 | fold more potent in RhlR than 13 or 16 (RhlR [1]; E. coli RhlR reporter IC50): approximately 3 fold
11 | O=C1OCC[C@@H]1NS(=O)(=O)c1ccc(F)c(C(F)(F)F)c1 [Compound 76] | 84% | 69.4 | 
12 | O=C1OCC[C@@H]1NS(=O)(=O)c1ccccc1Cl [Compound 27, 2-chloro BSHL] | 93% | 545 | effect on bacterial growth (bacterial growth): modest effect on bacterial growth
13 | O=C1OCC[C@@H]1NS(=O)(=O)c1cccc(F)c1 [Compound 88, 3-fluoro BSHL] | 92% | 120 | 
14 | O=C1OCC[C@@H]1NS(=O)(=O)c1ccc(Cl)cc1Cl [Compound 24, 2,4-di-Cl-BSHL] | 99% | 1590 | 
15 | CCCC(=O)N[C@H]1CCOC1=O [BHL, N-butanoyl L-homoserine lactone, reference compound] |  |  | EC50 (RhlR [2]): 10 µM; IC50 (RhlR [2]): 8.73 µM; EC50 (RhlR [3]): 5 to 10 µM; EC50 (RhlR [4]): 4.47 µM
16 | COc1cccc(S(=O)(=O)N[C@H]2CCOC2=O)c1 [Compound 48] | 88% | 210 | 
17 | O=C1OCC[C@@H]1NS(=O)(=O)Cc1ccc(Cl)cc1 [Compound 21, 4-Cl BnSHL] | 99% | 219 | fold more potent in RhlR than 13 or 16 (RhlR [1]; E. coli RhlR reporter IC50): approximately 3 fold

— paper PMC12456999, “Sulfonyl Homoserine Lactones Are Tunable Probes to Inhibit the Quorum Sensing Receptor RhlR and Reduce Swarming Motility in Pseudomonas aeruginosa” (ACS Infectious Diseases, 2025)
